Experimental data: US20130309209A1, “FORMATION OF HEMATOPOIETIC PROGENITOR CELLS FROM MESENCHYMAL STEM CELLS” (Center for Regenerative Medicine of Barcelona, priority 2010, published 2013)

Tests used:
Human MSCs [1] = assay: Western blotting of tyrosine phosphorylation of cellular proteins; format: cell-based; conditions: TGF beta inhibition added to standard transgeneration conditions
Description: TGF signaling involves a series of serine/threonine phosphorylation events, and its regulation is related to the activity of the MAPK-MEK-ERK pathway, a receptor tyrosine kinase (RTK) activated pathway. Thus, in order to address potential crosstalk involving tyrosine phosphorylation-dependent pathways Applicants investigated the effect of Applicants' different protocols on tyrosine phosphorylation of multiple cellular proteins by western blotting.

Human MSCs [2] = assay: Flow cytometry surface staining (CD34, CD45, CD43, CD133) of MSCs undergoing hematopoietic transdetermination; format: cell-based
Description: The following antibodies were used for flow cytometry and western blotting experiments respectively: mouse anti-human CD34-APC (130-046-703, Miltenyi), mouse anti-human CD45-FITC (130-080-202, Miltenyi), mouse anti-human CD133/2 (293C3)-PE (130-090-853, Miltenyi), mouse anti-human CD43-FITC (560978, BD biosciences), mouse APC isotype control (555751, BD biosciences), mouse FITC isotype control (555748, BD biosciences), The TGFβRI SB431542 (S4317, Sigma-Aldrich) and MEK/ERK U0126 (U120, Sigma-Aldrich) inhibitors were diluted in DMSO accordingly to the manufacturers' instruction and used at a final concentration of 25 and 10 μM respectively during the duration of the experiments with media changes every second day unless otherwise stated. Equal concentration of the solvent alone was used as a negative control.
Human OE-MSC and MSC-AT cells (passage 7) were infected (day 0) with pMX-based retroviruses by spinfection of the cells at 1850 rpm for 1 hour in the presence of polybrene (4 μg/ml). Cells were maintained in the retroviruses-containing media for 12 hours and then the media was removed and replaced by the cell-specific culture medium. Twenty four hours after the first infection (day 1), a second round of infection was performed. The day after (day 2), cells were maintained in their respective media for 24 hours before being switched to a Wicell media containing DMEM/F12 (Invitrogen) supplemented with 20% Knockout Serum Replacement (Invitrogen), 1 mM L-glutamine, 0.1 mM non-essential aminoacids, […] β-mercaptoethanol and 10 ng/ml bFGF.
Human MSCs undergoing hematopoietic transdetermination were harvested at the indicated time points. Cells were washed once with PBS and further incubated with the corresponding antibodies in the presence of FACS blocking buffer (1×PBS/10% FCS) for 1 hour on ice in the absence of light. After incubation, cells were washed three times with 1 ml FACS blocking buffer and resuspended in a total volume of 200 μl prior to analysis. A minimum of 10,000 living cells were analyzed.
2.5 μg of recombinant human Sox2-TAT (110-03T, Peprotech) was added to the culture media every 12 hours prior to analysis of transdetermination.

[3] = test system: CD34+ OE-MSC-derived cells; assay: Hematopoietic colony forming assays; format: cell-based, human; conditions: CD34+ cells accumulated during chronic inhibition of TGFβ
Description: Hematopoietic clonogenic assays were performed in 35-mm low adherent plastic dishes (Stem Cell Technologies, Vancouver, BC, Canada) using 1.1 ml/dish of methylcellulose semisolid medium (MethoCult H4434 classic, Stem Cell Technologies) according to the manufacturer's instructions. Briefly, enriched CD34+ OE-MSC-derived cells were sorted and immediately plated at various densities: 1.5×10^3/ml, 3×10^3/ml and 6×10^3/ml. All assays were performed in duplicate. Colony-forming units (CFU) and Burst-forming units (BFU) were scored after 7 to 14 days of incubation according to their colony morphology as erythroid (CFU-E and BFU-E), granulocyte, erythroid, macrophage, megakaryocyte (CFU-GEMM), granulocyte-macrophage (CFU-GM), and macrophage (CFU-M).

Human MSCs [4] = assay: Real time PCR (RT-PCR) analysis of hematopoietic and pluripotency marker mRNA; format: cell-based
Description: Total RNA was isolated using Trizol Reagent (Invitrogen) according to the manufacturer's recommendations. 1 μg of DNAse1 (invitrogen) treated total RNA was used for cDNA synthesis using the SuperScript II Reverse Transcriptase kit for RT-PCR (Invitrogen). Real-time PCR was performed using the SYBR-Green PCR Master mix (Applied Biosystems). The levels of expression of respective genes were normalized to corresponding GAPDH values and are shown as fold change relative to the value of the control sample. All the samples were done in triplicate. The sequences correspond to SEQ ID NOs:7-68, and are listed in order, i.e., SEQ ID NO:7 (OCT4 endogenous 5′ oligo), SEQ ID NO:8 (OCT4 endogenous 3′oligo), SEQ ID NO:9 (NANOG 5′ oligo), etc.

Row | Compound | tyrosine phosphorylation of cellular proteins (Human MSCs [1]) | generation of CD34+ cells (Human MSCs [2]; Sox2 transduction in combination with TGFβRI inhibitor (FIG. 4C)) | newly generated CD45+ cells (Human MSCs [2]; Sox2 transduction in combination with TGFβRI inhibitor, days 2-8 (FIG. 4D)) | generation of CD34+CD45+ and CD45+ cell populations (Human MSCs [2]; in combination with Sox2 transduction, 4 days of transdetermination (FIG. 5E)) | CD34+CD45+ cells (Human MSCs [2]; inhibition of the TGF beta pathway alone during ten days, compared to DMSO control, 25 μM) | CD34+ cells (Human MSCs [2]; inhibition of the TGFβ pathway, no Sox2 transduction, 25 μM) | CD34+ cells (Human MSCs [2]; long-term inhibition of TGF beta pathway during a one month period in culture, compared to standard protocol) | multilineage potential of sorted CD34+ cells [3] | endogenous Sox2 and Oct4 expression (Human MSCs [4]; chronic inhibition of TGFβ signaling alone (FIG. 4B)) | HPC-related markers at the mRNA level (Human MSCs [4]; chronic inhibition of TGFβ signaling alone, days 2-7 (FIG. 5C)) | early hematopoietic markers GATA2, Runx1, CD43 and CD41 (Human MSCs [4]; inhibition of TGF signaling) | endogenous Sox2 expression (Human MSCs [4]; inhibition of TGF signaling (Example 9)) | early CD34+ progenitors (Human MSCs [2]; chronic inhibition of ERK alone, no ectopic Sox2, 10 μM)
1 | NC(=O)c1ccc(-c2nc(-c3ccc4c(c3)OCO4)c(-c3ccccn3)[nH]2)cc1 [SB431542] | further enhances | does not impair | significant reduction | significantly abolishes | around 10% | 10-25% | up to 75% | retain multilineage potential | sufficient to upregulate | significant upregulation | downregulation | downregulation | 
2 | N#CC(=C(/N)Sc1ccccc1N)/C(C#N)=C(\N)Sc1ccccc1N [U0126] |  |  |  |  |  |  |  |  |  |  |  |  | up to 35%
